Test results: patent US20180250320A1, “COMPOSITIONS AND METHODS FOR TREATING SOLID TUMORS” (THE JOHNS HOPKINS UNIVERSITY, priority 2015, published 2018)
Like-named read-outs stand apart in the source and are kept apart here.

Columns and labels:
[1] = system: VEGF-defensin ID8 ovarian cells; assay: Ascites fluid volume in the ID8 model of ovarian cancer; type: in vivo; details: mice drained at week 6 after injection; same regimen; vs untreated (Mock) or single agent
Experimental: Mice were injected with 2.5×10^6VEGF-defensin ID8 ovarian cells i.p. Three days later, mice began treatment with 0.5 mg/kg 5-azacytidine (AZA) for 5 days per week. The next week the mice were treated with either 2 mg/kg MS275 or ITF 5 days a week, and the treatments alternated by week until the end of the experiment. Mice developed ascites fluid by week 4.5, and were drained and the ascites volume was measured. Ascites volume from mice drained at week 6 after injection.

[2] = cited from earlier work
[3] = system: Human lung cancer cell lines H23 and A549; assay: Expression of anti-viral genes and cancer testis antigens after AZA priming and HDACi treatment; type: cell-based; details: for expression of anti-viral genes: FIG. 4A; for expression of cancer testis antigens: FIG. 4B
Text: FIGS. 4A and 4B. […] Human lung cancer cell lines H23 and A549 were primed by treatment with AZA (red line) for 5 days followed by 3-5 days of treatment with the HDACi. For many genes, addition of an HDACi to AZA increases gene expression above levels attained by AZA alone.

[4] = HDACi in combination with AZA: AZA priming 5 days, then 3-5 days HDACi

Row | Compound | ascites fluid volume [1] | solubility ([2]; 5% Tween 80 in water) | solubility ([2]; 5% dextrose in water) | solubility ([2]; N-methyl-2-pyrrolidone) | solubility ([2]; acetone) | solubility ([2]; dimethylsulfoxide (DMSO)) | solubility ([2]; ethanol/water (50/50)) | solubility ([2]; ethanol) | solubility ([2]; methyl ketone) | solubility ([2]; normal saline) | solubility ([2]; polyethylene glycol) | solubility ([2]; propylene glycol) | solubility ([2]; water-saturated octanol) | solubility ([2]; water) | expression of anti-viral genes [3, 4] | expression of cancer testis antigens [3, 4] | expression of anti-viral genes ([3]; HDACi used as single agent) | expression of cancer testis antigens ([3]; HDACi used as single agent)
1 | Nc1ncn([C@@H]2O[C@H](CO)[C@@H](O)[C@H]2O)c(=O)n1 [AZA, 4-amino-1-β-D-ribofuranozyl-s-triazin-2(1H)-one] | significantly reduced ascites volume compared to Mock | sparingly soluble | sparingly soluble | sparingly soluble | insoluble | soluble | slightly soluble | insoluble | insoluble | sparingly soluble | slightly soluble | slightly soluble | sparingly soluble | sparingly soluble |  |  |  | 
2 | Nc1ccccc1NC(=O)c1ccc(CNC(=O)OCc2cccnc2)cc1 [Entinostat] |  |  |  |  |  |  |  |  |  |  |  |  |  |  | increase expression | increase expression | NOT | NOT
3 | CCN(CC)Cc1ccc2cc(COC(=O)Nc3ccc(C(=O)NO)cc3)ccc2c1.Cl [Givinostat, diethyl-[6-(4-hydroxycarbamoyl-phenylcarbamoyloxymethyl)-naphthalen-2-ylmethyl]-ammonium chloride] |  |  |  |  |  |  |  |  |  |  |  |  |  |  | increase expression | increase expression | NOT | NOT
